Data from ChEMBL document CHEMBL4507298 (2021).

Assays:
Conditions in all cases: Compound concentration 10.0 uM
[1] = target: 5-hydroxytryptamine receptor 2A (Homo sapiens) (UniProt P28223)
[2] = target: T1, 5-hydroxytryptamine receptor 3A (Homo sapiens) (UniProt P46098)
T1 sequence (whole entry): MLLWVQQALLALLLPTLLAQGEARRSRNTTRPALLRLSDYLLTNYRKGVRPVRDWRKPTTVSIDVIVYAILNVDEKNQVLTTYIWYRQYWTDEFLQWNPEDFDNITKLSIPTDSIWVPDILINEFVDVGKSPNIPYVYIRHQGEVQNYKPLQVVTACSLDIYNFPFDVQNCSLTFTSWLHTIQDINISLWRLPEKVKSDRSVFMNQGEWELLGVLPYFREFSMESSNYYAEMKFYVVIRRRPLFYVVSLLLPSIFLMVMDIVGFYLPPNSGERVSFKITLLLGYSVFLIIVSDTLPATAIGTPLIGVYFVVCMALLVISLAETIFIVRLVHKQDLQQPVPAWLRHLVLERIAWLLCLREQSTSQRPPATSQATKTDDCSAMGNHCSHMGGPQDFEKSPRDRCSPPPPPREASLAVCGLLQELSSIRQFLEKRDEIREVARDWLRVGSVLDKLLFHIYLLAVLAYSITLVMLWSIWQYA

[3] = target: 5-hydroxytryptamine receptor 6 (Homo sapiens) (UniProt P50406)
[4] = target: T2, D(4) dopamine receptor (Homo sapiens) (UniProt P21917)
T2 sequence (whole entry): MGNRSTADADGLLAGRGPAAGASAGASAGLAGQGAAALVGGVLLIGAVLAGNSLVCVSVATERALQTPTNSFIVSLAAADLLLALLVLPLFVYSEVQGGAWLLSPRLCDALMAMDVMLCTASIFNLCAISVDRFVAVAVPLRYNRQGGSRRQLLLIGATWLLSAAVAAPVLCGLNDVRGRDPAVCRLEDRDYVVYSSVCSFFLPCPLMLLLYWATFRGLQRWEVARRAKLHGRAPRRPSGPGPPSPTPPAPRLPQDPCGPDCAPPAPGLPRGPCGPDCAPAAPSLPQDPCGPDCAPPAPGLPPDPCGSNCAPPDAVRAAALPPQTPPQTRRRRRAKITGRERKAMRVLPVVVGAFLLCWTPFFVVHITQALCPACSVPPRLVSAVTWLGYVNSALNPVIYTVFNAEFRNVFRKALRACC

[5] = target: D(1B) dopamine receptor (Homo sapiens) (UniProt P21918)
[6] = target: Sodium-dependent noradrenaline transporter (Homo sapiens) (UniProt P23975)
[7] = target: Delta-type opioid receptor (Homo sapiens) (UniProt P41143)
[8] = target: Kappa-type opioid receptor (Homo sapiens) (UniProt P41145)
[9] = target: Histamine H2 receptor (Homo sapiens) (UniProt P25021)
[10] = target: Alpha-1A adrenergic receptor (Homo sapiens) (UniProt P35348)
[11] = target: T3, Alpha-2A adrenergic receptor (Homo sapiens) (UniProt P08913)
T3 sequence (whole entry): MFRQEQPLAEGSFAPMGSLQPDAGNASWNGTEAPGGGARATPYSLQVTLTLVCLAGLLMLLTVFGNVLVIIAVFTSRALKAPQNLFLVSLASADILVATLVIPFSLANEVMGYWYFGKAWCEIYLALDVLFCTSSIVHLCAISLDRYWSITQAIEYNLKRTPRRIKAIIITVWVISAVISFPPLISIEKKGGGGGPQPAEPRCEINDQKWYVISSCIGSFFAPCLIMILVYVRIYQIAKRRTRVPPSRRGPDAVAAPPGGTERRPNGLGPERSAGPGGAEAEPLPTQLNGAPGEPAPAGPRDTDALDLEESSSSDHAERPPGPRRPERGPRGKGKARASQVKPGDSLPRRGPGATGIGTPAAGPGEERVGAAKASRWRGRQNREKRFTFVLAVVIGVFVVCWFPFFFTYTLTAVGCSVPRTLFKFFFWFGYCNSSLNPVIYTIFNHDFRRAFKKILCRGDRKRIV

[12] = target: T4, Muscarinic acetylcholine receptor M1 (Homo sapiens) (UniProt P11229)
T4 sequence (whole entry): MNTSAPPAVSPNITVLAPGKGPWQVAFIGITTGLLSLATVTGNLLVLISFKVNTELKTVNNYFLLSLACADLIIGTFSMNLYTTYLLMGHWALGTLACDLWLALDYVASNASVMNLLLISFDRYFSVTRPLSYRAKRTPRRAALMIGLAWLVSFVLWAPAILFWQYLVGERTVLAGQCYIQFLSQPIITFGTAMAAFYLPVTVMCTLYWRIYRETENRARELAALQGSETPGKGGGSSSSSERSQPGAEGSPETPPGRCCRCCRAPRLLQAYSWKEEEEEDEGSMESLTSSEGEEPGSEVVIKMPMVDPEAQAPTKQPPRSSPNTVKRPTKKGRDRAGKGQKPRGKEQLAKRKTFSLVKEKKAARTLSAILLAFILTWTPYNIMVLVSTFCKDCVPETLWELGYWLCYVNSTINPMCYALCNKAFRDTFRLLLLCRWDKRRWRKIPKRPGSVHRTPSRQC

[13] = target: Muscarinic acetylcholine receptor M3 (Homo sapiens) (UniProt P20309)
[14] = target: T5, Muscarinic acetylcholine receptor M5 (Homo sapiens) (UniProt P08912)
T5 sequence (whole entry): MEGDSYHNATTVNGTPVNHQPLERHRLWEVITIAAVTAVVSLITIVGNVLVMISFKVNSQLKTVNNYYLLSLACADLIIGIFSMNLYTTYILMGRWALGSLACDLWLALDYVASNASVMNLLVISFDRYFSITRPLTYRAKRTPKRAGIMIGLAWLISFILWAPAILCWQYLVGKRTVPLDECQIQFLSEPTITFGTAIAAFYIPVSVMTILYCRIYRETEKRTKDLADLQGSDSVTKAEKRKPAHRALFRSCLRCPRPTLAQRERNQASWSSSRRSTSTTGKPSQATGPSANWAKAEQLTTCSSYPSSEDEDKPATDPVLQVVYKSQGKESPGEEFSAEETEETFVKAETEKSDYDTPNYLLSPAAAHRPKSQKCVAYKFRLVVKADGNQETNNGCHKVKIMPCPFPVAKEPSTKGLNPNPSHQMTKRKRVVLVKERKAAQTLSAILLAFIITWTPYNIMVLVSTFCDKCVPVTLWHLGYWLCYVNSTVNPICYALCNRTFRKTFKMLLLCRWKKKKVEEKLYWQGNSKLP

Sequence of 5-hydroxytryptamine receptor 2A (Homo sapiens) (P28223 whole entry): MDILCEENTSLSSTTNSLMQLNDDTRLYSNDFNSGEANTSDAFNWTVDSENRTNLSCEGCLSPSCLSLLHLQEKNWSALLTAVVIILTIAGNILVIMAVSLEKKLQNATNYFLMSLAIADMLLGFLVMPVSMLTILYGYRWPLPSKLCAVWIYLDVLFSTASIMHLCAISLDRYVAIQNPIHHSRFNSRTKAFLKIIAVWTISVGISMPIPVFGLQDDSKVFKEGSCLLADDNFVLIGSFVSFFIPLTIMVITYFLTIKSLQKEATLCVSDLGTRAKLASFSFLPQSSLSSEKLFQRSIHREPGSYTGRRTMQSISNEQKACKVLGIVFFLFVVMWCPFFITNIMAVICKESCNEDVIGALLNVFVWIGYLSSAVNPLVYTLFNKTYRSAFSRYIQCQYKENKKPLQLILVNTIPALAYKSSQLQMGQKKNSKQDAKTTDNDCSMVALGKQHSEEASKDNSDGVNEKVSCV
Sequence of Muscarinic acetylcholine receptor M3 (Homo sapiens) (P20309 whole entry, looked up): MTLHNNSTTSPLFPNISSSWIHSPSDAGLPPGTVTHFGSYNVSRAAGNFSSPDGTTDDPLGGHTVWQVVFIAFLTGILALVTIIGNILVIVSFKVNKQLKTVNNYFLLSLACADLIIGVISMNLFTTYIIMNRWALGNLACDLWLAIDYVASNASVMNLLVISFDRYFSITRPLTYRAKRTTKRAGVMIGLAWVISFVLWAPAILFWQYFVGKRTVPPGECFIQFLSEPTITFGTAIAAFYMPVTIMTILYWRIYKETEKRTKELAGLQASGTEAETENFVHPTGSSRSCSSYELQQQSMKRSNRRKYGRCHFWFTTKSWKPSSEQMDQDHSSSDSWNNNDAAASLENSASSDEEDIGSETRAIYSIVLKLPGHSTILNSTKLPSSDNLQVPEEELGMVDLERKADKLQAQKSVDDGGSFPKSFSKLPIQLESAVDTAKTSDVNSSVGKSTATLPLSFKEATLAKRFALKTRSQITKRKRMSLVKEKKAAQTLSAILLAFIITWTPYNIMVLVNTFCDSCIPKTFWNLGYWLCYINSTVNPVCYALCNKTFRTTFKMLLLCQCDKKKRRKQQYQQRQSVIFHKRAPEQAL
Sequence of 5-hydroxytryptamine receptor 6 (Homo sapiens) (P50406 whole entry): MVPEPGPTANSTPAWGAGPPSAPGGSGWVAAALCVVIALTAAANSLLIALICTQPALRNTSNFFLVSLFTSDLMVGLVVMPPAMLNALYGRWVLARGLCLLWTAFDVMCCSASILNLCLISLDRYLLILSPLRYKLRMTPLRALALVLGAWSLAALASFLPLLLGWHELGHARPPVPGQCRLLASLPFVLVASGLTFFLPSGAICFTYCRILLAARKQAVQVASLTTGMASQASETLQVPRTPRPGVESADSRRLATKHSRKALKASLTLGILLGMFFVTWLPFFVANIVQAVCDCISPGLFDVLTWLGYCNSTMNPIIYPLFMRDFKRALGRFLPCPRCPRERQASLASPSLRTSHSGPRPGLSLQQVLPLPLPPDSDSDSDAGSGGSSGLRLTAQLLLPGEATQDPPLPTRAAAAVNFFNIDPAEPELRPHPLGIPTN
Sequence of Alpha-1A adrenergic receptor (Homo sapiens) (P35348 whole entry): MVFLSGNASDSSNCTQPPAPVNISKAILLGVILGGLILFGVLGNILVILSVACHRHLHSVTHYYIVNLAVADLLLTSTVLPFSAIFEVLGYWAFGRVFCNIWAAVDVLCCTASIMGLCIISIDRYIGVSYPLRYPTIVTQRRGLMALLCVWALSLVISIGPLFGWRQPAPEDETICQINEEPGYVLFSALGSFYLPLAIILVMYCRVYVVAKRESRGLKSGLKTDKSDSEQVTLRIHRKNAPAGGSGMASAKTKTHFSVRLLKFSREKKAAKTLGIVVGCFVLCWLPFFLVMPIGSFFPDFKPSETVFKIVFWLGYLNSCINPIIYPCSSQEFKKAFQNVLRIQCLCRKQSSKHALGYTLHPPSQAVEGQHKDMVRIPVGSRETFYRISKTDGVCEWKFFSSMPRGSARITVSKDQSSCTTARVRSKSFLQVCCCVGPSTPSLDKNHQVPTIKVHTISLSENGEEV
Sequence of Kappa-type opioid receptor (Homo sapiens) (P41145 whole entry): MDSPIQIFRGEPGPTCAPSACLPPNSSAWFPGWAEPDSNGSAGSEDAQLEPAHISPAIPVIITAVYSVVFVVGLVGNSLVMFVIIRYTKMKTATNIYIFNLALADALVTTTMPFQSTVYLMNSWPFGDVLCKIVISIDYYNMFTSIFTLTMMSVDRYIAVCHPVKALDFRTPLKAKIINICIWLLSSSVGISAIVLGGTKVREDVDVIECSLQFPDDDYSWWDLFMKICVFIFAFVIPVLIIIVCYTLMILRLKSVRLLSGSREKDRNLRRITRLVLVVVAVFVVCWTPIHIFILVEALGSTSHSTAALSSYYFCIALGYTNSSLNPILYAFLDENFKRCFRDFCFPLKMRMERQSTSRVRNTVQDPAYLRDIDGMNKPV
Sequence of D(1B) dopamine receptor (Homo sapiens) (P21918 whole entry): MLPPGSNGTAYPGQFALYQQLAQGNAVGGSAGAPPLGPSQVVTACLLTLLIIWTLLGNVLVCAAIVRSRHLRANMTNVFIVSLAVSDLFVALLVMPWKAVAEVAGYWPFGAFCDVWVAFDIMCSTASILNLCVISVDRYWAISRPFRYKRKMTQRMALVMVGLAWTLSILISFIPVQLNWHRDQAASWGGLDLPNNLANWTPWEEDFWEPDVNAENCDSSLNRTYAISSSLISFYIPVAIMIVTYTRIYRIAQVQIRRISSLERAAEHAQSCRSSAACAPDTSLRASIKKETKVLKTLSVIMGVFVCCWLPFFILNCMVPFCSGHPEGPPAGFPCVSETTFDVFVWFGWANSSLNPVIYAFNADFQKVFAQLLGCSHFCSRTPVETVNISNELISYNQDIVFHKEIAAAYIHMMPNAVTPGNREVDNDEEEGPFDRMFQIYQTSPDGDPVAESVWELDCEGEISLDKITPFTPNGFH
Sequence of Sodium-dependent noradrenaline transporter (Homo sapiens) (P23975 whole entry): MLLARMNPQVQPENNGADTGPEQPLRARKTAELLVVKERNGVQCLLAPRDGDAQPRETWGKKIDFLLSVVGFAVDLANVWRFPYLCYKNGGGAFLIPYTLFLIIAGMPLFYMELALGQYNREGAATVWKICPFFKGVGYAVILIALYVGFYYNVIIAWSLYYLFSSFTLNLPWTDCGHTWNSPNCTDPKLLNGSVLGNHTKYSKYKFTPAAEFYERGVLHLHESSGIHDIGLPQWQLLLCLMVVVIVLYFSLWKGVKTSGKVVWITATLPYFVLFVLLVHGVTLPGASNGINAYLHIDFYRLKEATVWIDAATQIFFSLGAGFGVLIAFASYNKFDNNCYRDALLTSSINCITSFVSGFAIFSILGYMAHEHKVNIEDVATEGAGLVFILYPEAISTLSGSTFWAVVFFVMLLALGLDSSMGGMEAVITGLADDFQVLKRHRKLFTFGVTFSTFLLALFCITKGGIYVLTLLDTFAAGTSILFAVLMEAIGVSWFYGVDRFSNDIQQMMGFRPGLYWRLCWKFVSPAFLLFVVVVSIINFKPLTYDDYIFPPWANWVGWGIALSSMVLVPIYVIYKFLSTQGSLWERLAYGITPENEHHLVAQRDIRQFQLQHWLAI
Sequence of Histamine H2 receptor (Homo sapiens) (P25021 whole entry): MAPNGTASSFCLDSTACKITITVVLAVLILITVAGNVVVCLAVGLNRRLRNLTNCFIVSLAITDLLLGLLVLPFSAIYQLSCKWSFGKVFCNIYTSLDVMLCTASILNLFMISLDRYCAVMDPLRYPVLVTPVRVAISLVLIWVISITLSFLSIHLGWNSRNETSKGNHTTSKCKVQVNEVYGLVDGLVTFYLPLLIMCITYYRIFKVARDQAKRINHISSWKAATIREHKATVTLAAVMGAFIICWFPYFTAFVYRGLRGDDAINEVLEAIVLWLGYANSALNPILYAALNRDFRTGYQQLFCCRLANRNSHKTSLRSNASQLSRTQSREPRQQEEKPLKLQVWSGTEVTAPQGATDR
Sequence of Delta-type opioid receptor (Homo sapiens) (P41143 whole entry): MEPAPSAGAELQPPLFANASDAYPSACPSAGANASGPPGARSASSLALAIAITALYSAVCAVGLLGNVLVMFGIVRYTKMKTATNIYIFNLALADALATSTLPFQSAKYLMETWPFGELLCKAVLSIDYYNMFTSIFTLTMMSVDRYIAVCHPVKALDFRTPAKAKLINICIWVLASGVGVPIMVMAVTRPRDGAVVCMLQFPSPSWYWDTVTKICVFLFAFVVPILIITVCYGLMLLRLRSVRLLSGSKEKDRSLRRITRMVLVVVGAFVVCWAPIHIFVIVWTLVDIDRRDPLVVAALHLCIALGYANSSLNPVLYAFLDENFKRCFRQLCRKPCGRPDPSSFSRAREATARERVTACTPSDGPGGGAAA

SMILES	inhibition [1]	inhibition [2]	inhibition [3]	inhibition [4]	inhibition [5]	inhibition [6]	inhibition [7]	inhibition [8]	inhibition [9]	inhibition [10]	inhibition [11]	inhibition [12]	inhibition [13]	inhibition [14]
COc1ccc2cc(OCC3(C(=O)O)CN(C(=O)c4ccc(F)cc4)C3)ccc2c1 [PF-04418948]	6.25%	0.08%	-6.47%	8.76%	-2.51%	11%	5.07%	16.4%	3%	2.52%	21.8%	-0.03%	19.2%	-7.44%
O=C(c1ccc(F)cc1)N1CC(COc2ccc(Br)cc2)(C(=O)O)C1 [PF-04475866]	-2.23%	16.6%	-2.64%	-7.87%	2.2%	16.8%	-5.22%	-9.45%	15.7%	-4.09%	14.2%	-0.69%	27.9%	-0.33%
